Entries after “also recorded” stand apart in the source; their conditions may differ.

For series [1], the system named is Aging microcebes. Put plainly: Effects in aging microcebes. The format is in vivo. The conditions noted are these: chronic treatment for 18 months. From the text: Aging microcebes show similar cognitive deficits and cerebral lesions to those observed in aging humans and in AD patients. Thus this is a good animal model for AD, mimicing the three major hallmarks in AD {plaques (Aβ), paired helical filaments (hyperphophorylated and aggregated τ) and cognitive dysfunction}. This model may also be used to mimic MCI conducive to AD

Series [2] concerns ischemic rats. Put plainly: Working memory (MWM) in ischemic rats. It counts as in vivo, Sprague Dawley rats. The conditions noted are these: 0.5 mg/kg, po, chronic. The procedure:
Transient ischemia in rats was induced by a modification of the ischemia model (Voll et et al, Stroke, 20: 1700–1706, 1989). This was done by a bilateral carotid artery occlusion in Sprague Dawley rats: (42 male, 3 months old, weighing 270–340 g) combined with reduction in blood pressure induced by sodium nitropruside. Ischemia was induced in 21 rats whereas the other 21 rats served as sham controls. Under pentobarbital anasthesia (30 mg/kg, ip), sodium nitropruside 4.8 mg/kg/hr) was infused through a cannula implanted in the tail vein, for a period of 25 min. Five min after the initiation of the infusion, at the time when mean blood pressure was maintained at 30–60 mmHg (intial levels ˜110 mm Hg) both carotid arteries were clamped for 20 min. Immediately afterwards 1.8 mEq sodium bicarbonate solution was administerd ip in order to minimize systemic acidosis. The sham operated rats were anesthetized as the ischemic rats and were infused with saline. […] In rats subjected to ischemia, a mortality of about 30% was recorded within 24 hr after surgery. […]
The ratio of escape latency (REL) and the ratio of path length (RPL) were calculated by the ratio of block no 2/block no 1 for each parameter. […] REL and RPL were analyzed by a 3-way ANOVA (2×2×3), with one repeated variable (weeks) and two non-repeated variables (Operation-ischemia/sham-operated and Treatment AF150(S)/DDW).

Series [3] has as its system Primary mixed rat cortical neurons infected with recombinant Semliki Forest virus encoding human APP695 or APP C99 or C111. Put plainly: Aβ levels in vitro in infected cortical neurons. It counts as cell-based. As to the method:
The mechanism of Aβ modulation was tested using C99 (and C111) that are truncated constructs generated from APP. Unlike APP, C99/C111 are direct substrates for γ-secretase. With both constructs it is possible to directly assay for γ-secretase activity, while with APP this is not possible. Both constructs are—as compared to APP—inefficient substrates for α-secretase. Synergistc effects were also evaluated with CDX (methyl-β-cyclodextrin), an agent which extracts cholesterol from the plasma membrane. CDX inhibits also Aβ production. CDX-treated cells were treated in addition to the respective muscarinic agonist for 5 min to reduce the cholesterol content.

Series [4] has as its system rat hippocampal neurons. Put plainly: Survival, morphology and apoptosis of hippocampal neurons exposed to Aβ. The format is cell-based. As to the method: This study was performed in rat hippocampal primary cell cultures using the methods described by Garrido J L et al. (FASEB J 2002; 16:1982).
Series [5] has as its target T1, M5 receptor (Homo sapiens, UniProt P08912).
T1 construct: expressed in transfected cells
Put plainly: PI hydrolysis in cells transfected with human M5. The format is cell-based.

Series [6] in a line: Cardiac electrophysiology and haemodynamics in awake dogs. It counts as in vivo, Beagle dogs. The note with it: 5 mg/kg orally. The procedure: • 1. Astemizole (human ether-a-go-go related gene (HERG) Channel) Binding Assay. […] Isolated Guinea Pig Right Atrium (atrial fibrillation). […] Effects of AF292 (dose 5 mg/kg orally) on cardiac electrophysiological, cardio-haemodynamic in instrumented, awake dogs. Healthy trained and chronically instrumented female Beagle dogs of varying age and ranging in body weight from 9.4 to 12 kg, were used for recording of the cardiovascular parameters: heart rate, diastolic and systolic blood pressure, pressure rate product, LV dp/dt max, LV dp/dt max/pd, LV dp/dt min, cardiac output, stroke volume, systemic vascular resistance and the ECG parameters (PQ-, QRS-, QT-, QTcBazett-(QTcB), QTcFridericia-(QTcF) and QTcVan de Water-(QTcVdW) interval duration and QT-dispersion. During the last 18 hours prior to the experiments, the dogs had no access to food. Water was available ad libitum. At the beginning of each experiment, control values of the various parameters were recorded for at least 30 min. Thereafter, 5 mg/kg of AF292 (n=4) or the corresponding volume of the solvent (n=4) was administered orally by gavage. The various haemodynamic parameters were recorded continuously for 4 hours thereafter.

Series [7] deals with CYP3A4 (Homo sapiens, UniProt P08684). Put plainly: Cytochrome P450 inhibition, CYP3A4. The format is in vitro ADME. The conditions noted are these: up to 10 μM. As to the method:
Cytochrome P450 activity can be an indicator for potential drug-drug interactions. AF292 was evaluated in a microtiter plate assay for P450 inhibition.

Series [8] is described as follows: Caco-2 cell permeability. The format is in vitro ADME, human. The note with it: human, Caco-2; bi-directional assay; read-out: average permeability coefficient (Papp). As to the method: (§1) This test is used to determine intestinal permeability of tested compounds. Caco-2 cells, when grown on semipermeable filters, spontaneously differentiate in culture to form confluent monolayers which both structurally and functionally resemble the small intestinal epithelium. Because of this property they are useful as an in vitro model for the study of drug absorption and metabolism during absorption in the intestinal mucosa. Caco-2 monolayers were grown to confluence on collagen-coated, microporous, polycarbonate membranes in 12 well plates and permeability of the test material was determined.
On the technique in general: Passage across Caco-2 layers is used to estimate intestinal permeability.

Series [9] concerns Caco-2 monolayers. Put plainly: Caco-2 cell permeability. It counts as in vitro ADME, human. As to the method: as §1
Series [10] deals with trihexyphenidyl rats. Put plainly: Passive avoidance in trihexyphenidyl-treated rats. The conditions noted are these: 0.03 mg/kg, po, 72 hrs delay; DDW 93.1±29.0. The format is in vivo, Wistar rats.

T1 sequence (P08912 whole entry): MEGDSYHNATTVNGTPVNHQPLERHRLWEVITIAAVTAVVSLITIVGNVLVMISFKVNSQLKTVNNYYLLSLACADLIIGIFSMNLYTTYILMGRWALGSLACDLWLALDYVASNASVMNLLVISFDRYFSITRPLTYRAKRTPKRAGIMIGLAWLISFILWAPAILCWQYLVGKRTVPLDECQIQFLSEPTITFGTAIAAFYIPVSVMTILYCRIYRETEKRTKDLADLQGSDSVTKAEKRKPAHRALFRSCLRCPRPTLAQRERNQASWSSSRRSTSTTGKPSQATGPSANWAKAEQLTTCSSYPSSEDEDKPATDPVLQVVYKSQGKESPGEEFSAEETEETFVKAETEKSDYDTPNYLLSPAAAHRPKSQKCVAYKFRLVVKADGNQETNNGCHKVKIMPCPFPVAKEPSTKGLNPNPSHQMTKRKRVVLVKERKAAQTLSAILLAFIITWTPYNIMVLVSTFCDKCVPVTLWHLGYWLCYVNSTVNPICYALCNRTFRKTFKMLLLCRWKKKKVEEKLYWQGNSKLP
CYP3A4, sequence (P08684 whole entry): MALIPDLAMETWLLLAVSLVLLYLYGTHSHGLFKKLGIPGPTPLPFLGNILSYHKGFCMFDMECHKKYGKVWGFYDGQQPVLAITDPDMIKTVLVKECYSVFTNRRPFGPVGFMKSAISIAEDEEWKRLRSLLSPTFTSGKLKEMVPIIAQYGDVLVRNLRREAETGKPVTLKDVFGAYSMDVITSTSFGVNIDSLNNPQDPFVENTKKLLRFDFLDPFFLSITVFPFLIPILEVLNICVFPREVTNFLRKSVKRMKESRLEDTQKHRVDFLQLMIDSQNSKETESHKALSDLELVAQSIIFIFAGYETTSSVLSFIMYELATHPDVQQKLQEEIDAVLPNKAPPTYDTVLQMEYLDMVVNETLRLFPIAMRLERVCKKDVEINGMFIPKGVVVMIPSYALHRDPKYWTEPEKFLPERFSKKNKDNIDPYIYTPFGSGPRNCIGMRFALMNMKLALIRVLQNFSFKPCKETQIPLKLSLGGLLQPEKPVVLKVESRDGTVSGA

Turning to `CC1=NCC2(CCN(C)CC2)S1` [AF150(S), 2,8-Dimethyl-1-thia-3,8-diaza-spiro[4.5]dec-2-ene], in series [1], the Astrogliosis and inflammation result is “decreased astrogliosis and inflammation”; the “Cognitive and behavioral impairments” value is “improved the cognitive and behavioral impairments”; the “Hyperphosphorylated τ, aggregated τ neurons, paired helical filaments” value was “decreased hyperphosphorylated τ proteins”. Besides, the “Working memory performance (REL and RPL)” value in series [2] is “significantly improved working memory performance”.
As to `CC[C@@H]1SC2(CCN(C)CC2)NC1=O` [AF267B, (S)-2-ethyl-8-methyl-1-thia-4,8-diaza-spiro[4.5]decan-3-one], in series [3], the “Active concentration range, decrease of Aβ” value is reported as “active in the μM range”; the “Potency in decreasing Aβ levels relative to AF150(S)” value is “at least 5 fold”; the “Reduction of release of Aβ-like fragments (3–4 Kda)” value is “approximately 50%”; the “γ secretase activity reduction” value turned out to be 50%. Also, the p3 fragment entry in [3] (1 mM) was “complete loss”. In series [3] (with CDX (5 mM), to undetectable Aβ levels), the “Decrease of Aβ together with CDX” value is on record as “synergistic effect”. The “Protection of hippocampal neurons from Aβ1–40” value in series [4] (10 μM, Aβ1–40 (5 μM)) was more than 90%. In addition, the “Aβ1–40-induced apotosis” value in [4] (10 μM, Aβ1–40 (5 μm)) is on record as “to the control level”. Further, the “Survival and morphology of hippocampal neurons, compound alone” value in series [4] (0.5–50 μM) is “does not affect the survival and morphology”. Further, in [4] (Aβ1–40 (5 μM)), the “Neurites after Aβ1–40 (immunofluorescence)” value is “protected the neurons”.
As to `CC[C@@H]1SC2(CCNCC2)NC1=O` [AF292, (S)-2-Ethyl-1-thia-4,8-diaza-spiro[4.5]decan-3-one], the “PI turnover, M5, agonist activity” value in series [5] is recorded as “No activity; also recorded: PI, AA: M5 mAChR - no effect as agonist”. In addition, the “Hemodynamic and ECG parameters” value in series [6] was “no statistically significant and relevant effect”. Further, the “Inhibition of CYP3A4” value in series [7] was “did not induce significant inhibition”. The Papp in series [8] worked out at 17.4 ×10⁻⁶ cm/s. The Absorption potential ranking entry in series [9] was “high absorption potential”. In [10], this compound had a Retention latency of 225.9 ± 36 s.

By Papp is commonly meant the rate of passage across a membrane or cell layer, normalised by area and donor concentration.

The values above are taken from patent US7049321B2, “Methods and pharmaceutical compositions for treatment of central and peripheral nervous system disorders and compounds useful therefor” (Israel Institute for Biological Research, priority 2002, dated 2006).
